Results on two compounds are retold here after patent US20240245603A1, “HIGH LOADING ORAL FILM FORMULATION” (INTELGENX CORP., priority 2021, published 2024).

The conditions of series [1]: cited from earlier work.
Series [2] can be described thus: Solubility studies of Maropitant in solvents and solubility enhancers (visual inspection). The format is physicochemical. Here is the method: The following solubility studies were performed with Maropitant drug substance in various solvents and solubility enhancers. […] During solubility studies, the API was solubilized stepwise, in a series of permitted solvent (or a combination of solvent) with and without solubility enhancer. The solvent system was based on methanol, ethanol, isopropyl alcohol (IPA), acetone, methyl ethyl ketone (MEK), and water. Solubility enhancers included Maiscine CC (MGO) (HLB 1), medium chain triglyceride (MCT) oil (HLB 1), Labrafil 1944 cs (HLB 9), Labrafil 2125CS (HLB 9), Glycerine, Tween 20 (HLB 16,7), PEG 300, Propylene glycol, SLS (HLB 40). The resulting mixture was visually inspected to evaluate solubilization. The main equipment used were glass bottles, magnetic stir bars, stirrer plate, and sonicator.

The nature of series [3]: Permeability of Maropitant through artificial membranes, Franz cell model. The format is in vitro ADME. Here is the method: Numerous experiments were performed to improve the permeability of Maropitant through artificial membranes using the Franz cell model. Initially, solutions and suspensions of Maropitant and different acids at different ratios were prepared.
Based on the results obtained with the solution/suspension of Maropitant at different pH, Maropitant oral films with and without citric acid were prepared.

For `CN1CC(=O)N2[C@H](c3ccc4c(c3)OCO4)c3[nH]c4ccccc4c3C[C@@H]2C1=O` [Tadalafil], the solubility in water entry in series [1] was “practically insoluble”.

Turning to `COc1ccc(C(C)(C)C)cc1CN[C@H]1C2CCN(CC2)[C@H]1C(c1ccccc1)c1ccccc1` [Maropitant], the Solubility result is “Up to 30 mg/1 g of solvent” in series [2] (Test 1, media Methanol); “Up to 15 mg/1 g of solvent” in series [2] (Test 2, media Ethanol); “insoluble” in series [2] (Test 3, media Isopropanol); “Up to 120 mg/1 g of solvent” in series [2] (Test 4, media Acetone); “Up to 150 mg/1 g of solvent” in series [2] (Test 5, media MEK); “Up to 180 mg/1 g of solvent” in series [2] (Test 6, MEK:Maiscine CC 40:2). Further, the Solubility result is “Up to 220 mg/1 g of solvent” in series [2] (Test 7, MEK:Maiscine CC 40:3); “Up to 220 mg/1 g of solvent” in series [2] (Test 8, MEK:MCT 40:2); “Up to 240 mg/1 g of solvent” in series [2] (Test 9, MEK:MCT 40:3); “Up to 180 mg/1 g of solvent” in series [2] (Test 10, MEK:PEG 300 40:2); “Up to 240 mg/1 g of solvent” in series [2] (Test 11, MEK:MCT:PEG 300 40:3:2); “Up to 220 mg/1 g of solvent” in series [2] (Test 12, MEK:Labrafil 1944CS 40:2). For the same compound, the Solubility entry in series [2] (Test 13, MEK:Labrafil 1944CS:MCT 40:3:2) is on record as “Up to 220 mg/1 g of solvent”; in series [2] (Test 14, MEK:Labrafil 1944CS:PEG 300 40:3:2), “Up to 220 mg/1 g of solvent”; in series [2] (Test 15, MEK:Glycerine 40:2) it was “Up to 135 mg/1 g of solvent”; in series [2] (Test 16, MEK:Tween 20 40:2) it was “Up to 180 mg/1 g of solvent”; in series [2] (Test 17, MEK:Methanol 40:10) it was “Up to 155 mg/1 g of solvent”; in series [2] (Test 18, MEK:Methanol:MCT 40:10:3), “Up to 235 mg/1 g of solvent”. In addition, the Solubility result in series [2] (Test 19, MEK:Water 40:4.5) is recorded as “insoluble”; in series [2] (Test 20, MEK:Methanol:Labrafil 2125CCS:Tween 20 40:10:4:4), “Up to 317 mg/1 g of solvent”. Moreover, in series [3] (Maropitant/citric acid pH 4.24, 5.22, 6.22 and phosphate citrate buffer pH 8.0, FIG. 9), the “permeation of Maropitant solutions/suspensions at different pH” value is recorded as “acidic environment promotes Maropitant permeation”. Further, in series [3] (oral films with and without citric acid), the “Maropitant permeability of films with versus without citric acid” value is on record as “improved”.
